Experimental data published in patent US11767313B2, “Compounds as nuclear transport modulators and uses thereof” (XWPHARMA LTD., priority 2018, dated 2023).
Read-outs that look alike come from different tables or passages of the source.

Tested on: U87MG
Test: CellTiter-Glo cell proliferation assay, U87MG
Assay type: cell-based, human
Settings: U87MG, Table 12; for IC50: Homo sapiens, U-87 MG; for Bottom / Hill Slope / Top: curve fit
Description: CellTiter-Glo® Luminescent Cell Viability assay (with Promega CellTiter 96® Luminescent CellTiter-Glo® kit) was used to study the proliferation inhibition by test compounds. Compounds were resuspended in DMSO to make a 25 mM stock suspension. Cells of cancer cell lines or normal tissues were seeded in 96-well plates at 1,500 to 5,000 cells/well overnight. Compounds were 2- or 3-fold diluted serially to obtain 10 concentrations. Then, the drugs were added to the cell wells by Bravo (Agilent) and incubated for 72 hours. The cells were lysed by adding CellTiter-Glo® Reagent (per manufacturer's instructions) and subsequently, the luminescence was read using EnVision® (PerkinElmer).
The percent of growth was calculated as follows. DMSO-treated cells were employed as vehicle control (High control, HC) and culture medium alone was employed as background (Low control, EC). % growth=100×(Lum sample−Lum EC)/(Lum HC−Lum EC). The ICso was calculated by concentration-response curve fitting using Graphpad Prism.
Hematological cancer cell lines tested included OCI-AML3, MV-4-11, KG-1, Kasumi-1, K562, THP-1; solid cancer cell lines tested included U87MG, U251, T98G, LN229, A172, H460, H2009, A549; normal cell lines tested included HCN2 and 3T3-L1. […] However, they were not toxic to in vitro cultured normal cells.

For `CCCC(=O)NNC(=O)/C=C\n1cnc(-c2cc(C(F)(F)F)cc(S(F)(F)(F)(F)F)c2)n1` [Compound IX, (Z)—N′-(3-(3-(3-(Pentafluorosulfaneyl)-5-(trifluoromethyl)phenyl)-1H-1,2,4-triazol-1-yl)acryloyl)butyrohydrazide], the IC50 (read-out: Relative IC50) was 100 nM, the “Max % Inhibition” value was 48.3% and the Bottom was −4.6. For the same molecule, the “Hill Slope” value was 1.6 and the Top was 43.6.
In the case of `O=C(/C=C\n1cnc(-c2cc(C(F)(F)F)cc(S(F)(F)(F)(F)F)c2)n1)NNC(=O)C1CC1` [Compound VII, (Z)—N′-(3-(3-(3-(Pentafluorosulfaneyl)-5-(trifluoromethyl)phenyl)-1H-1,2,4-triazol-1-yl)acryloyl)cyclopropanecarbohydrazide], the IC50 (read-out: Relative IC50) is reported as 100 nM, the “Max % Inhibition” value is reported as 49.0% and the Bottom is reported as −6.4. For the same molecule, the “Hill Slope” value was 1.2 and the Top was 45.9.
In the case of `CC(C)C(=O)NNC(=O)/C=C\n1cnc(-c2cc(C(F)(F)F)cc(S(F)(F)(F)(F)F)c2)n1` [Compound VIII, (Z)—N′-Isobutyryl-3-(3-(3-(pentafluorosulfaneyl)-5-(trifluoromethyl)phenyl)-1H-1,2,4-triazol-1-yl)acrylohydrazide], the IC50 (read-out: Relative IC50) is reported as 100 nM, the “Max % Inhibition” value is reported as 44.0% and the Bottom is reported as −10.6. For the same molecule, the “Hill Slope” value was 1.8 and the Top was 38.8.
For `O=C(/C=C\n1cnc(-c2cc(C(F)(F)F)cc(S(F)(F)(F)(F)F)c2)n1)NNC(=O)C1CCC1` [Compound X, (Z)—N′-(3-(3-(3-(Pentafluorosulfaneyl)-5-(trifluoromethyl)phenyl)-1H-1,2,4-triazol-1-yl)acryloyl)cyclobutanecarbohydrazide], the IC50 (read-out: Absolute IC50) was 9400 nM, the IC50 (read-out: Relative IC50) was 200 nM and the “Max % Inhibition” value was 58.3%. For the same molecule, the Bottom was −15.9, the “Hill Slope” value was 0.5 and the Top was 59.4.
In the case of `CC1(C(=O)NNC(=O)/C=C\n2cnc(-c3cc(C(F)(F)F)cc(S(F)(F)(F)(F)F)c3)n2)CC1` [Compound XI, (Z)-1-Methyl-N′-(3-(3-(3-(pentafluorosulfaneyl)-5-(trifluoromethyl)phenyl)-1H-1,2,4-triazol-1-yl)acryloyl)cyclopropane-1-carbohydrazide], the IC50 (read-out: Relative IC50) is reported as 200 nM, the “Max % Inhibition” value is reported as 48.5% and the Bottom is reported as −7.6. The “Hill Slope” value was 1.8 and the Top was 44.6.
In the case of `CC(CO)(CCl)C(=O)NNC(=O)/C=C\n1cnc(-c2cc(C(F)(F)F)cc(S(F)(F)(F)(F)F)c2)n1` (centres unmarked) [Compound XII, (Z)—N′-(3-Chloro-2-(hydroxymethyl)-2-methylpropanoyl)-3-(3-(3-(pentafluorosulfaneyl)-5-(trifluoromethyl)phenyl)-1H-1,2,4-triazol-1-yl)acrylohydrazide], the IC50 (read-out: Absolute IC50) is reported as 18500 nM, the IC50 (read-out: Relative IC50) is reported as 600 nM and the “Max % Inhibition” value is reported as 53.9%. For the same molecule, the Bottom was −5.5, the “Hill Slope” value was 1.2 and the Top was 50.9.
For `CC(C)(C)C(=O)NNC(=O)/C=C\n1cnc(-c2cc(C(F)(F)F)cc(C(F)(F)F)c2)n1` [KPT-350, (Z)-3-(3-(3,5-bis(trifluoromethyl)phenyl)-1H-1,2,4-triazol-1-yl)-N′-pivaloylacrylohydrazide, reference compound], the IC50 (read-out: Absolute IC50) was 10000 nM, the IC50 (read-out: Relative IC50) was 300 nM and the “Max % Inhibition” value was 49.4%. The Bottom was −13.2, the “Hill Slope” value was 0.8 and the Top was 53.0.
